What was measured:
[1] = system: Snail; experiment: E-cadherin promoter firefly luciferase reporter (Snail transcriptional repression); format: cell-based; settings: MDA-MB-231 cells, up to 250 nM
Description: MDA-MB-231 metastatic breast cancer cells express Snail1 in the nucleus. A firefly luciferase plasmid with the E-cadherin promoter region was added upstream of the transcriptional start site Snail (SEE FIG. 7A). Binding of Snail to the E-boxes thereby repress luciferase transcription and therefore luciferase activity.

[2] = target: T1, Slug (Xenopus laevis, UniProt Q91924); experiment: EMSA, inhibition of Slug DNA-binding in embryo lysates; format: biochemical; settings: relative to Co(III)-Ebox at 1 μM
T1 construct: 5x myc; expressed in transfected cells; host or cells: Xenopus laevis embryos injected with in vitro transcribed mRNA; whole embryo lysate, stage 8 / blastula
T1 sequence (Q91924 1-266): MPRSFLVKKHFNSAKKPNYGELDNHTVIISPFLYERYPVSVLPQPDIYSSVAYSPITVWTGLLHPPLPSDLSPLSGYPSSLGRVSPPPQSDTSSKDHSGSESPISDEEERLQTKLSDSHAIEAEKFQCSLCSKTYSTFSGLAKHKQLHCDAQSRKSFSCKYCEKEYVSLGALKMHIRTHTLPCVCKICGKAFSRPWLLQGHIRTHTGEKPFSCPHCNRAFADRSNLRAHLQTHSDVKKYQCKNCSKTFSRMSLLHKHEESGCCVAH
Description: (§1) (A) Lysates of blastula stage embryos (lane 1) or embryos with overexpressed Slug protein (lanes 2-6) were incubated with increasing concentrations of Co(III)-Ebox of 0, 0.01, 0.1 and 1 μM for 15 min prior to challenge with a ^32P-labeled Ebox containing Slug DNA probe for 30 min. (B) Lysates of blastula stage embryos injected with Slug, Snail or Sip1 mRNA (lanes 1-9) or Slug, p105, MitF and Lef-1 mRNA (lanes 10-21) were incubated with 0 or 1 μM Co(III)-Ebox for 15 min prior to challenge with ^32P-labeled Slug probe for 30 min and analyzed by EMSA on a native gel. […] Samples were analyzed by EMSA on a native TBE/acrylamide gel.
(§2) Lysates of blastula stage embryos injected with Slug mRNA were incubated with increasing concentrations of Co(1II)-Schiff base of 0, 1.5, 5, 15, 50, 150 and 500 μM (lanes 2-8) for 15 min, then incubated with ^32P-labeled Slug probe for 30 min and visualized by EMSA. Lysates of embryos injected with Slug (lanes 10 and 11), p105 (lanes 13 and 14), MitF (lanes 16 and 17) or Lef-1 (lanes 19 and 20) mRNA were incubated with 0 or 150 μM Co(1II)-Schiff base for 15 min and labeled with ^32P-labeled Slug probe for 30 min. Uninjected embryos are presented in lanes 1, 9, 12, I5 and 18. Samples were separated by EMSA. […]

[3] = target: T1, Slug; experiment: In vivo assay: embryos injected with agent and Slug RNA, EMSA at blastula stage; settings: 10 fold excess (10 μM) injected
Description: Pigmented and albino eggs were obtained and fertilized using standard protocol (Bellmeyer et al. (2003) Dev Cell 4(6):827-839, herein incorporated by reference in its entirety). All embryos are staged using the Niewenkoop-Faber method. Embryos were injected into one-cell at stage 1 in 0.4× modified ringer's (MR) solution with 3% Ficoll then transferred to 0.1×MR until harvesting. mRNA was transcribed in vitro using the SP6 Message Machine Kit (Ambion, Austin, Tex.). Concentrations of mRNA injected into one cell at the 2-cell stage range from 5-50 pg. XSip1 in the vector pCS2+ was obtained from A. Eisaki (Eisaki (2000) Biochem Biophys Res Commun 271(1):151-157, herein incorporated by reference in its entirety). cDNA was generated using PCR amplification and a high fidelity polymerase (Pfu; Roche, Indianapolis Ind.). cDNAs were cloned into a pCS2 variant that adds 5 myc tags to either the N- or C-terminus. All constructs were confirmed by sequencing using a ABI 3730 high-throughput DNA Sequencer.
For in vitro assays, whole embryo lysates were prepared by lysing 5 stage 8 embryos in 100 μL of lysis buffer (1×PBS, 1% NP-40 and Complete protease inhibitor cocktail tablets; Roche, Indianapolis, Ind.). […]

[4] = target: T2, p105 (Homo sapiens, UniProt P19838); experiment: EMSA, inhibition of p105 DNA-binding in embryo lysates; format: biochemical, Xenopus laevis; settings: high concentrations (150 μM per FIG. 4 legend)
T2 construct: 5x myc; expressed in transfected cells; host or cells: Xenopus laevis embryos injected with in vitro transcribed mRNA; whole embryo lysate
T2 sequence (P19838 1-968): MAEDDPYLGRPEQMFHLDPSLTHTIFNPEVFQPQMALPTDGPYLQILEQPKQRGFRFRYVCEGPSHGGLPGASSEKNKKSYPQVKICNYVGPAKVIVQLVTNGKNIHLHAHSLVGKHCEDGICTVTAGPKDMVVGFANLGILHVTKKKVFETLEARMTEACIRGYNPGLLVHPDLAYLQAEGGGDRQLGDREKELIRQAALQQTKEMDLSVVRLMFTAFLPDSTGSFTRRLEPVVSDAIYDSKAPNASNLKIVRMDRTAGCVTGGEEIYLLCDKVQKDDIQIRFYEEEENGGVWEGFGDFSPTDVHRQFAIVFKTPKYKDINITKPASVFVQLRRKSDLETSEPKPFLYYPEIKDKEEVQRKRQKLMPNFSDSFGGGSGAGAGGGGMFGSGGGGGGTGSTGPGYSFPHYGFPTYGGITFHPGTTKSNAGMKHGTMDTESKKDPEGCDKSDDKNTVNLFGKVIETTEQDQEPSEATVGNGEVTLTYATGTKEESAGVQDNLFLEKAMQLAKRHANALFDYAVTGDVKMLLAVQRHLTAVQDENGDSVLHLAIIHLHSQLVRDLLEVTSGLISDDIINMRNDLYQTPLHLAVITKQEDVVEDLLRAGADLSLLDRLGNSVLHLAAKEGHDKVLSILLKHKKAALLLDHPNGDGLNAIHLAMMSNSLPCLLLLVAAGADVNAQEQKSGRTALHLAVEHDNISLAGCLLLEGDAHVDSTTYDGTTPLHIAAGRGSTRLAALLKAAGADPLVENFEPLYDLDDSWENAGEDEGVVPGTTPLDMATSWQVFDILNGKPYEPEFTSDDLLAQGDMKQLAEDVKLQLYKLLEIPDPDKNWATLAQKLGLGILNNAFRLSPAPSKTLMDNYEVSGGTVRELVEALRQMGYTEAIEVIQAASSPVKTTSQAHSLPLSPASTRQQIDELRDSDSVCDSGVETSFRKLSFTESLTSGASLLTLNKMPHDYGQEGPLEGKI
Description: as §1, §2

[5] = target: T3, Lef-1 (Homo sapiens, UniProt Q9UJU2); experiment: EMSA, inhibition of Lef-1 DNA-binding in embryo lysates; format: biochemical, Xenopus laevis; settings: high concentrations (150 μM per FIG. 4 legend)
T3 construct: 5x myc; expressed in transfected cells; host or cells: Xenopus laevis embryos injected with in vitro transcribed mRNA; whole embryo lysate
T3 sequence (Q9UJU2 whole entry, species assumed): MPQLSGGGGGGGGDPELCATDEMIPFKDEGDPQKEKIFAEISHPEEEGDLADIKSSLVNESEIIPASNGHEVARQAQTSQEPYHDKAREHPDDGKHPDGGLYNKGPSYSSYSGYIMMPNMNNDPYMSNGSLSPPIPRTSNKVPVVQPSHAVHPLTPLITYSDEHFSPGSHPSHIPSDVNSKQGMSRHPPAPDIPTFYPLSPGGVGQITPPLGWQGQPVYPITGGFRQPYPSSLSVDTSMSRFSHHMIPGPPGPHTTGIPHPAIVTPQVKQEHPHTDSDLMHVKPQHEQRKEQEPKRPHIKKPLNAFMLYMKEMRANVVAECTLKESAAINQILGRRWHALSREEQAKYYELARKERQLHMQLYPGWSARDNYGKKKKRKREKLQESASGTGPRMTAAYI
Description: as §1, §2

For “[Co(III)(heptanoic acido)(acacen)(NH3)2]Cl [Co(III)-Schiff base]”, the “Luciferase activity of E-cadherin promoter construct (Snail transcriptional activity)” value [1] was “did not affect”, the “Excess required to achieve inhibition of Slug comparable to Co(III)-Ebox at 1 μM” value [2] was 150 fold and the “Inhibition of Slug function (DNA-binding) after injection in vivo” value [3] was “not inhibited”. The “Inhibition of p105 DNA-binding” value [4] was “inhibited” and the “Inhibition of Lef-1 DNA-binding” value [5] was “inhibited”.

Source: US20130303737A1, “TARGETED SCHIFF BASE COMPLEXES” (NORTHWESTERN UNIVERSITY, priority 2009, published 2013)
